For 26 compounds, IC50 results are on record in patent US9873709B2 (priority 2013, dated 2018).

This assay concerns JAK1-dependent STAT6 phosphorylation downstream of IL-13 stimulation in TF-1 human erythroleukemia cells. Briefly: cells. The conditions noted are these: TF-1, read-out: IL-13-pSTAT6 IC50.
Take `O=C(CCC(F)(F)F)N1CC=C(c2cccn3nc(Nc4ccc(C(=O)N5CCCC56CCNC6)cc4)nc23)CC1` (centres unmarked) [Example 2-440, 1-[4-[2-[4-(1,7-diazaspiro[4.4]nonane-1-carbonyl)anilino]-[1,2,4]triazolo[1,5-a]pyridin-8-yl]-3,6-dihydro-2H-pyridin-1-yl]-4,4,4-trifluoro-butan-1-one]: the IC50 (usually the midpoint of a concentration-inhibition curve) was 156 nM.
With `CN(CCN)C(=O)c1ccc(Nc2nc3c(C4=CCN(C(=O)CCC(F)(F)F)CC4)cccn3n2)cc1` [Example 2-441, N-(2-aminoethyl)-N-methyl-4-[[8-[1-(4,4,4-trifluorobutanoyl)-3,6-dihydro-2H-pyridin-4-yl]-[1,2,4]triazolo[1,5-a]pyridin-2-yl]amino]benzamide], the IC50 came to 82.4 nM.
In the case of `O=C(CCC(F)(F)F)N1CC=C(c2cccn3nc(Nc4ccc(C(=O)N5CCCC6(CCCNC6)C5)cc4)nc23)CC1` (centres unmarked) [Example 2-443, 1-[4-[2-[4-(2,8-diazaspiro[5.5]undecane-2-carbonyl)anilino]-[1,2,4]triazolo[1,5-a]pyridin-8-yl]-3,6-dihydro-2H-pyridin-1-yl]-4,4,4-trifluoro-butan-1-one], the half-maximal inhibitory concentration (IC50) was found to be 72.3 nM.
For the compound `O=C(NCC1CCNC1)c1ccc(Nc2nc3c(C4=CCN(C(=O)CCC(F)(F)F)CC4)cccn3n2)cc1` (centres unmarked) [Example 2-444, N-(pyrrolidin-3-ylmethyl)-4-[[8-[1-(4,4,4-trifluorobutanoyl)-3,6-dihydro-2H-pyridin-4-yl]-[1,2,4]triazolo[1,5-a]pyridin-2-yl]amino]benzamide], the IC50 was determined as 154 nM.
With `O=C(NC1CCNCC1)c1ccc(Nc2nc3c(C4=CCN(C(=O)CCC(F)(F)F)CC4)cccn3n2)cc1` [Example 2-445, N-(4-piperidyl)-4-[[8-[1-(4,4,4-trifluorobutanoyl)-3,6-dihydro-2H-pyridin-4-yl]-[1,2,4]triazolo[1,5-a]pyridin-2-yl]amino]benzamide], the concentration for half-maximal inhibition (IC50) turned out to be 456 nM.
For `NCC1CCN(C(=O)c2ccc(Nc3nc4c(C5=CCN(C(=O)CCC(F)(F)F)CC5)cccn4n3)cc2)CC1` [Example 2-446, 1-[4-[2-[4-[4-(aminomethyl)piperidine-1-carbonyl]anilino]-[1,2,4]triazolo[1,5-a]pyridin-8-yl]-3,6-dihydro-2H-pyridin-1-yl]-4,4,4-trifluoro-butan-1-one], the IC50 came to 208 nM.
In the case of `NCC1CCN(C(=O)c2ccc(Nc3nc4c(C5=CCN(C(=O)CCC(F)(F)F)CC5)cccn4n3)cc2)C1` (centres unmarked) [Example 2-447, 1-[4-[2-[4-[3-(aminomethyl)pyrrolidine-1-carbonyl]anilino]-[1,2,4]triazolo[1,5-a]pyridin-8-yl]-3,6-dihydro-2H-pyridin-1-yl]-4,4,4-trifluoro-butan-1-one], the IC50 is 275 nM.
Regarding `O=C(CCC(F)(F)F)N1CC=C(c2cccn3nc(Nc4ccc(C(=O)N5CCO[C@@H]6CNC[C@H]65)cc4)nc23)CC1` [Example 2-448, 1-[4-[2-[4-[(4aR,7aR)-3,4a,5,6,7,7a-hexahydro-2H-pyrrolo[3,4-b][1,4]oxazine-4-carbonyl]anilino]-[1,2,4]triazolo[1,5-a]pyridin-8-yl]-3,6-dihydro-2H-pyridin-1-yl]-4,4,4-trifluoro-butan-1-one], the IC50 was 120 nM.
On to `O=C(CCC(F)(F)F)N1CC=C(c2cccn3nc(Nc4ccc(C(=O)N5C[C@H]6CN[C@H]6C5)cc4)nc23)CC1` [Example 2-449, 1-[4-[2-[4-[(1R,5R)-3,6-diazabicyclo[3.2.0]heptane-3-carbonyl]anilino]-[1,2,4]triazolo[1,5-a]pyridin-8-yl]-3,6-dihydro-2H-pyridin-1-yl]-4,4,4-trifluoro-butan-1-one], for which the IC50 came to 355 nM.
`O=C(CCC(F)(F)F)N1CC=C(c2cccn3nc(Nc4ccc(C(=O)N5CCCCC56CCNCC6)cc4)nc23)CC1` [Example 2-450, 1-[4-[2-[4-(1,9-diazaspiro[5.5]undecane-1-carbonyl)anilino]-[1,2,4]triazolo[1,5-a]pyridin-8-yl]-3,6-dihydro-2H-pyridin-1-yl]-4,4,4-trifluoro-butan-1-one]: the IC50 is 115 nM.
The same measure for `CN(C(=O)c1ccc(Nc2nc3c(C4=CCN(C(=O)CCC(F)(F)F)CC4)cccn3n2)cc1)C1CNC1` [Example 2-451]: 287 nM; for `NCC12CC(CN1C(=O)c1ccc(Nc3nc4c(C5=CCN(C(=O)CCC(F)(F)F)CC5)cccn4n3)cc1)C2` [Example 2-452, 1-[4-[2-[4-[4-(aminomethyl)-3-azabicyclo[2.1.1]hexane-3-carbonyl]anilino]-[1,2,4]triazolo[1,5-a]pyridin-8-yl]-3,6-dihydro-2H-pyridin-1-yl]-4,4,4-trifluoro-butan-1-one]: 134 nM; for `O=C(CCC(F)(F)F)N1CC=C(c2cccn3nc(Nc4ccc(C(=O)N5CCOC6CCNCC65)cc4)nc23)CC1` (centres unmarked) [Example 2-453, 1-[4-[2-[4-(2,3,4a,5,6,7,8,8a-octahydropyrido[4,3-b][1,4]oxazine-4-carbonyl)anilino]-[1,2,4]triazolo[1,5-a]pyridin-8-yl]-3,6-dihydro-2H-pyridin-1-yl]-4,4,4-trifluoro-butan-1one]: 171 nM.
On to `O=C(N[C@H]1[C@@H]2CNC[C@@H]21)c1ccc(Nc2nc3c(C4=CCN(C(=O)CCC(F)(F)F)CC4)cccn3n2)cc1` [Example 2-454, N-[(1R,5S)-3-azabicyclo[3.1.0]hexan-6-yl]-4-[[8-[1-(4,4,4-trifluorobutanoyl)-3,6-dihydro-2H-pyridin-4-yl]-[1,2,4]triazolo[1,5-a]pyridin-2-yl]amino]benzamide], for which the half-inhibitory concentration (IC50) is 87.9 nM.
With `O=C(NCCN1CCCCC1)c1ccc(Nc2nc3c(C4=CCN(C(=O)CCC(F)(F)F)CC4)cccn3n2)cc1` [Example 2-455, N-[2-(1-piperidyl)ethyl]-4-[[8-[1-(4,4,4-trifluorobutanoyl)-3,6-dihydro-2H-pyridin-4-yl]-[1,2,4]triazolo[1,5-a]pyridin-2-yl]amino]benzamide], the IC50 was 5.5 nM.
Under `O=C(CCC(F)(F)F)N1CC=C(c2cccn3nc(Nc4ccc(C(=O)N5CCC(c6ccncc6)CC5)cc4)nc23)CC1` [Example 2-456, 4,4,4-trifluoro-1-[4-[2-[4-[4-(4-pyridyl)piperidine-1-carbonyl]anilino]-[1,2,4]triazolo[1,5-a]pyridin-8-yl]-3,6-dihydro-2H-pyridin-1-yl]butan-1-one] stands 7.5 nM; under `CN1C2COCC1CN(C(=O)c1ccc(Nc3nc4c(C5=CCN(C(=O)CCC(F)(F)F)CC5)cccn4n3)cc1)C2` [Example 2-458, 4,4,4-trifluoro-1-[4-[2-[4-(9-methyl-3-oxa-7,9-diazabicyclo[3.3.1]nonane-7-carbonyl)anilino]-[1,2,4]triazolo[1,5-a]pyridin-8-yl]-3,6-dihydro-2H-pyridin-1-yl]butan-1-one], 45.9 nM.
Take `CN1CCC(NC(=O)c2ccc(Nc3nc4c(C5=CCN(C(=O)CCC(F)(F)F)CC5)cccn4n3)cc2)C1` (centres unmarked) [Example 2-459, N-(1-methylpyrrolidin-3-yl)-4-[[8-[1-(4,4,4-trifluorobutanoyl)-3,6-dihydro-2H-pyridin-4-yl]-[1,2,4]triazolo[1,5-a]pyridin-2-yl]amino]benzamide]: the IC50 was found to be 20.5 nM.
Under `CN(Cc1ccc2ncccc2c1)C(=O)c1ccc(Nc2nc3c(C4=CCN(C(=O)CCC(F)(F)F)CC4)cccn3n2)cc1` [Example 2-460, N-methyl-N-(6-quinolylmethyl)-4-[[8-[1-(4,4,4-trifluorobutanoyl)-3,6-dihydro-2H-pyridin-4-yl]-[1,2,4]triazolo[1,5-a]pyridin-2-yl]amino]benzamide] stands 27.6 nM.
Under `CC1CCCN(C2CCN(C(=O)c3ccc(Nc4nc5c(C6=CCN(C(=O)CCC(F)(F)F)CC6)cccn5n4)cc3)CC2)C1` (centres unmarked) [Example 2-461, 4,4,4-trifluoro-1-[4-[2-[4-[4-(3-methyl-1-piperidyl)piperidine-1-carbonyl]anilino]-[1,2,4]triazolo[1,5-a]pyridin-8-yl]-3,6-dihydro-2H-pyridin-1-yl]butan-1-one] stands 6.1 nM; under `O=C(CCC(F)(F)F)N1CC=C(c2cccn3nc(Nc4ccc(C(=O)N5CCN(CCn6ccnc6)CC5)cc4)nc23)CC1` [Example 2-462, 4,4,4-trifluoro-1-[4-[2-[4-[4-(2-imidazol-1-ylethyl)piperazine-1-carbonyl]anilino]-[1,2,4]triazolo[1,5-a]pyridin-8-yl]-3,6-dihydro-2H-pyridin-1-yl]butan-1-one], 44.4 nM.
The same measure for `CC(C)N1CCC(CN(C)C(=O)c2ccc(Nc3nc4c(C5=CCN(C(=O)CCC(F)(F)F)CC5)cccn4n3)cc2)C1` (centres unmarked) [Example 2-463, N-[(1-isopropylpyrrolidin-3-yl)methyl]-N-methyl-4-[[8-[1-(4,4,4-trifluorobutanoyl)-3,6-dihydro-2H-pyridin-4-yl]-[1,2,4]triazolo[1,5-a]pyridin-2-yl]amino]benzamide]: 26 nM; for `CN(C)C1CCN(C(=O)c2ccc(Nc3nc4c(C5=CCN(C(=O)CCC(F)(F)F)CC5)cccn4n3)cc2)C1` (centres unmarked) [Example 2-464, 1-[4-[2-[4-[3-(dimethylamino)pyrrolidine-1-carbonyl]anilino]-[1,2,4]triazolo[1,5-a]pyridin-8-yl]-3,6-dihydro-2H-pyridin-1-yl]-4,4,4-trifluoro-butan-1-one]: 9.1 nM.
For the compound `O=C(NCCN1CCOCC1)c1ccc(Nc2nc3c(C4=CCN(C(=O)CCC(F)(F)F)CC4)cccn3n2)cc1` [Example 2-465, N-(2-morpholinoethyl)-4-[[8-[1-(4,4,4-trifluorobutanoyl)-3,6-dihydro-2H-pyridin-4-yl]-[1,2,4]triazolo[1,5-a]pyridin-2-yl]amino]benzamide], the IC50 was found to be 9.4 nM.
As to `O=C(NCCN1CCCC1)c1ccc(Nc2nc3c(C4=CCN(C(=O)CCC(F)(F)F)CC4)cccn3n2)cc1` [Example 2-466, N-(2-pyrrolidin-1-ylethyl)-4-[[8-[1-(4,4,4-trifluorobutanoyl)-3,6-dihydro-2H-pyridin-4-yl]-[1,2,4]triazolo[1,5-a]pyridin-2-yl]amino]benzamide], the IC50 is 17.9 nM.
As for `CN1CCC(CNC(=O)c2ccc(Nc3nc4c(C5=CCN(C(=O)CCC(F)(F)F)CC5)cccn4n3)cc2)CC1` [Example 2-467, N-[(1-methyl-4-piperidyl)methyl]-4-[[8-[1-(4,4,4-trifluorobutanoyl)-3,6-dihydro-2H-pyridin-4-yl]-[1,2,4]triazolo[1,5-a]pyridin-2-yl]amino]benzamide], the IC50 was 20.9 nM.
